The results in this text go back to PMC6274087, “New Phragmalin-Type Limonoids from Chukrasia tabularis and Their α-Glucosidase Inhibitory Activity” (Molecules, 2016).

For data set [1], the system named is α-glucosidase. In words: in vitro α-glucosidase inhibitory assay (4-nitrophenyl-α-D-glucopyranoside substrate, OD at 405 nm). Particulars: for α-glucosidase inhibitory activity (result in words): bioactivity screening; for IC50: read-out: IC50 Value, α-glucosidase inhibitory activity, mean ± SD of triplicate experiments, acarbose as positive control.
Protocol: The optimized procedure was as follows: 20 μL of 0.2 U/mL α-glucosidase has been added into 0.1mM potassium phosphate buffer (pH 6.8, 112 μL), then mixed with the testing sample (8 μL). After being preincubated at 37 °C for 15 min, 20 μL of 2.5 mmol/L 4-nitrophenyl-α-D-glucopyranoside was added and then mixed. The reaction was carried out at 37 °C for 15 min and stopped by adding 0.2 M solution of Na2CO3 (80 μL). The optical density values of the reaction mixture were the mean values of three measurements, which were performed at 405 nm wavelength.

For the molecule `COC(=O)C(OC(C)=O)C1C2(C)CC34OC5(C)OC6(C(O)C(OC(C)=O)C78CC7(C(OC(C)=O)C(=O)OC8c7ccoc7)C6(O5)C(OC(=O)C(C)C)C3(O)C2OC(C)=O)C14C` (stereo not drawn) [Compound 8, chubularisin K], in data set [1], the “α-glucosidase inhibitory activity (result in words)” value (from here on “α-glucosidase inhibitory activity”) was “showed inhibitory activities” and the IC50 was 200 ± 57 µM.

Consider `CC(=O)OC1C2(C)CC34OC5(C)OC6(C7CC(=O)OC(c8ccoc8)C7(C)CCC6(O5)C35OC(=O)CC25)C(OC(=O)C(C)C)C14O` (stereo not drawn) [Compound 2, Chukbularisin B], for which the melting point fell in the range of 185 to 186 °C. In data set [1], the “α-glucosidase inhibitory activity” value is recorded as “showed inhibitory activities” and the IC50 is 60 ± 8 µM.

For the molecule `CC(=O)OC(C1=CC(O)OC1=O)C1(C)C(OC(C)=O)C(OC(C)=O)C2(O)C34OC(C)(CC13)OC4C1(OC(C)=O)C(OC(C)=O)C3(C)CC1(O)C21COC(=O)CC31` (stereo not drawn) [Compound 1, Chukbularisin A], the melting point fell in the range of 201 to 203 °C.

In turn, `COC(=O)C(OC(C)=O)C1C2(C)CC3(O)C(O)(C2OC(C)=O)C2OC4(C(C)C)OC5(C(OC(C)=O)C(OC(C)=O)C67CC6(C(OC(C)=O)C(=O)OC7c6ccoc6)C25O4)C13C` (stereo not drawn) [Compound 4, Chukbularisin D] came in with a melting point of 190 to 191 °C. Besides, in data set [1], the “α-glucosidase inhibitory activity” value is “showed inhibitory activities” and the half-inhibitory concentration (IC50) is 520 ± 39 µM.

In turn, `COC(=O)C(OC(C)=O)C1C2(C)CC3(O)C(OC(=O)C(C)C)(C2OC(C)=O)C2OC4(C)OC5(C(OC(C)=O)C(OC(C)=O)C67CC6(C(OC(C)=O)C(=O)OC7c6ccoc6)C25O4)C13C` (stereo not drawn) [Compound 5, Chukbularisin E] came in with a melting point of 208 to 209 °C. Further, in data set [1], the “α-glucosidase inhibitory activity” value is on record as “showed inhibitory activities” and the IC50 was found to be 1090 ± 40 µM.

Molecule `COC(=O)CC1C2(C)CC3(O)C(O)(C2OC(C)=O)C(OC(=O)C(C)C)C24OC5(C)OC(C(OC(C)=O)C67CC62C(OC(=O)C(C)C)C(=O)OC7c2ccoc2)C4(O5)C13C` (stereo not drawn) [Compound 3, Chukbularisin C] returned a melting point of 198 to 199 °C. Moreover, in data set [1], the “α-glucosidase inhibitory activity” value was “showed inhibitory activities” and the half-inhibitory concentration (IC50) stood at 40 ± 2 µM.

As usually defined, the IC50 is the concentration needed to halve the response being measured. For orientation: melting point means the temperature of the solid-liquid transition.
